≈ marks a conversion by molar mass, not a printed value.
Legend:
[1] = tested on: a strain of S. aureus; assay: MIC determination (CLSI broth microdilution) against S. aureus; format: cell-based, Staphylococcus aureus; settings: 37° C., lowest concentration showing <10% bacterial growth; for MIC: Staphylococcus aureus, 18 h, read-out: Staph MIC; for Staph MIC: 18 hours
Experimental: (§1) The protocol for MIC determination is based on the Clinical & Laboratory Standards Institute (CLSI) guidelines. MICs are determined by setting up 96-well microtiter plates with serially diluted concentrations in DMSO or water ranging from 0-256 μg/mL for each compound of the invention (e.g., 256 μg/mL, 128 μg/mL, 64 μg/mL, 32 μg/mL, 16 μg/mL, 8 μg/mL, 4 μg/mL, 2 μg/mL, 1 μg/mL, etc.). The total volume in each plate is about 200 μL, with 2 μL of each serial dilution added to each well. Clinical isolates of various bacteria are obtained from the American Type Culture Collection (ATCC) and colony-resuspended for MIC testing as per CLSI guidelines. Plates are incubated at 37° C. for 18 hours, and optical density is read on a Tecan M1000 Infinite Pro plate reader at 600 nm. At least 3 replicates are done for each query compound. The MIC for each compound is the lowest compound concentration showing <10% bacterial growth.
(§2) The protocol as described in Example 2 was used to determine the minimal inhibitory concentration (MIC) of each of the following compounds against a strain of S. aureus and Pore-TolC E. coli.

[2] = tested on: Pore-TolC E. coli; assay: MIC determination (CLSI broth microdilution) against Pore-TolC E. coli; format: cell-based, Escherichia coli; settings: for Pore-TolC E. coli MIC: 37° C., 18 hours, lowest concentration showing <10% bacterial growth; for MIC: Escherichia coli, 18 h, read-out: Pore-TolC E. coli MIC, Pore-TolC E. coli, 37° C., lowest concentration showing <10% bacterial growth
Experimental: as §1, §2

[3] = tested on: E. coli; assay: Checkerboard broth microdilution (FICI) in combination with Colistin against E. coli; format: cell-based, Escherichia coli; settings: combined with Colistin (0-0.5 μg/mL) against E. coli; compound 0-32 μg/mL; FICI <= 0.5 is synergy
From the text: In some embodiments, a compound of the invention and another antibacterial agent are synergistic. In some embodiments, a fractional inhibitory concentration (FIC) index calculation (shown below) is used to show synergy of a compound of the invention and another antibacterial agent.
FICother antibacterial agent=[other antibacterial agent]/MICother antibacterial agent, where [other antibacterial agent] is the lowest inhibitory concentration of the other antibacterial agent in the presence of a compound of the invention.
The FIC index (FICI) is the sum of the FICcompound of the invention and FICother antibacterial agent. Drug-Drug interactions having an FICI of less than or equal to 0.5 are deemed synergistic. In some embodiments, a compound of the invention and another antibacterial agent have a FICI of about 0.5, about 0.4, about 0.3, about 0.2, about 0.1 or about 0. […]
The effect of another antibacterial agent on the activity of the compounds of the invention is evaluated. […] Fractional inhibitory concentration indices (FICIs) are determined by setting up standard checkerboard broth microdilution assays in 96-well microtiter plates with serially diluted 8 (or 10) concentrations of each drug (disclosed compounds and the other antibacterial agent). […] Plates are incubated at 37° C. for 18 hours, and optical density is read on a Tecan M1000 Infinite Pro plate reader at 600 nm. […]

SMILES | MIC [1] [µg/mL] | Pore-TolC E. coli MIC [2] [µg/mL] | MIC [2] [µg/mL] | FICI [3] | Staph MIC [1] [µg/mL]
CC(C)=CCC/C(C)=C/Cc1c(O)cc(-c2cncnc2)cc1O [MLAP-1913] | 8 (≈ 24.7 µM) | 2 | – | – | –
CC(C)=CCC/C(C)=C/Cc1c(O)cc(C)cc1O [MLEB-1850] | 8 (≈ 30.7 µM) | – | 2 (≈ 7.68 µM) | < 0.5 | –
CC(C)=CCC/C(C)=C/Cc1c(O)cccc1O [MLEB-1864] | 4 (≈ 16.2 µM) | – | 1 (≈ 4.06 µM) | – | –
CC(C)=CCC/C(C)=C/Cc1c(O)cc(Br)cc1O [MLEB-1917] | 4 (≈ 12.3 µM) | 0.5 | – | < 0.375 | –
CC(=O)c1ccc(-c2cc(O)c(C/C=C(\C)CCC=C(C)C)c(O)c2)cc1 [MLEB-1996] | 32 (≈ 87.8 µM) | – | > 32 | – | –
CC(C)=CCC/C(C)=C/Cc1c(O)cc(-c2cccc(C)c2C)cc1O [MLEB-1997] | 2 (≈ 5.71 µM) | – | 1 (≈ 2.85 µM) | – | –
CC(C)=CCC/C(C)=C/Cc1c(O)cc(-c2ccc(C)cc2)cc1O [MLEB-1998] | 4 (≈ 11.9 µM) | – | 1 (≈ 2.97 µM) | – | –
CC(C)=CCC/C(C)=C/Cc1c(O)cc(-c2ccc(C(F)(F)F)cc2)cc1O [MLEB-1999] | 1 (≈ 2.56 µM) | – | 2 (≈ 5.12 µM) | – | –
CC(C)=CCC/C(C)=C/Cc1c(O)cc(-c2ccc(Cl)cc2)cc1O [MLEB-19100] | 2 (≈ 5.6 µM) | – | 2 (≈ 5.6 µM) | – | –
CC(C)=CCC/C(C)=C/Cc1c(O)cc(-c2cccc(C(F)(F)F)c2)cc1O [MLEB-19101] | – | 1 | – | – | 2
CC(C)=CCC/C(C)=C/Cc1c(O)cc(-c2cc(C(F)(F)F)ccc2F)cc1O [MLEB-19102] | 2 (≈ 4.9 µM) | – | 2 (≈ 4.9 µM) | – | –
CC(C)=CCC/C(C)=C/Cc1c(O)cc(-c2cccc(C=O)c2)cc1O [MLEB-19108] | 8 (≈ 22.8 µM) | – | – | – | –
CC(C)=CCC/C(C)=C/Cc1c(O)cc(-c2cnc3ccccc3c2)cc1O [MLEB-19109] | 32 (≈ 85.7 µM) | – | 32 (≈ 85.7 µM) | – | –
CC(C)=CCC/C(C)=C/Cc1c(O)cc(-c2ccc(C=O)cc2)cc1O [MLEB-19110] | 8 (≈ 22.8 µM) | – | – | – | –
CC(C)=CCC/C(C)=C/Cc1c(O)cc(-c2cccc(C(F)(F)F)c2)cc1O [MLEB-19112] | 1 (≈ 2.56 µM) | – | 1 (≈ 2.56 µM) | – | –
CC(C)=CCC/C(C)=C/Cc1c(O)cc(-c2c(F)cccc2F)cc1O [MLEB-19114] | 1 (≈ 2.79 µM) | – | 0.5 (≈ 1.39 µM) | – | –
CC(C)=CCC/C(C)=C/Cc1c(O)cc(-c2cccc(O)c2)cc1O [MLEB-19115] | 4 (≈ 11.8 µM) | – | 2 (≈ 5.91 µM) | – | –
CC(C)=CCC/C(C)=C/Cc1c(O)cc(Br)cc1O [MLEB-19116] | – | 4 | – | – | 8
CC(C)=CCC/C(C)=C/Cc1c(O)cc(-c2cnc(N)cn2)cc1O [MLEB-19117] | 4 (≈ 11.8 µM) | – | – | – | –
CC(C)=CCC/C(C)=C/Cc1c(O)cc(-c2cc(C(F)(F)F)cc(C(F)(F)F)c2)cc1O [MLEB-19118] | 1 (≈ 2.18 µM) | – | 8 (≈ 17.5 µM) | – | –

SMILES | MIC [1] [µg/mL] | Pore-TolC E. coli MIC [2] [µg/mL] | MIC [2] [µg/mL] | FICI [3] | Staph MIC [1] [µg/mL]
CC(C)=CCC/C(C)=C/Cc1c(O)cc(-c2c(C)noc2C)cc1O [MLEB-19120] | 2 (≈ 5.86 µM) | – | – | – | –
CC(C)=CCC/C(C)=C/Cc1c(O)cc(-c2ccccc2Cl)cc1O [MLEB-19121] | 0.5 (≈ 1.4 µM) | – | – | – | –
CC(C)=CCC/C(C)=C/Cc1c(O)cc(-c2ccncc2)cc1O [MLEB-19128] | 4 (≈ 12.4 µM) | – | 2 (≈ 6.18 µM) | – | –
CC(C)=CCC/C(C)=C/Cc1c(O)cc(-c2cncnc2)cc1O [MLEB-19129] | – | 8 | – | – | 16
CC(C)=CCC/C(C)=C/Cc1c(O)cc(-c2ccc(F)nc2)cc1O [MLEB-19130] | 2 (≈ 5.86 µM) | – | 2 (≈ 5.86 µM) | – | –
CC(C)=CCC/C(C)=C/Cc1c(O)cc(-c2ccc(C=O)cc2F)cc1O [MLEB-19131] | 2 (≈ 5.43 µM) | – | 2 (≈ 5.43 µM) | – | –
CC(C)=CCC/C(C)=C/Cc1c(O)cc(-c2cccc(Cl)c2)cc1O [MLEB-19132] | 1 (≈ 2.8 µM) | – | 1 (≈ 2.8 µM) | – | –
CC(C)=CCC/C(C)=C/Cc1c(O)cc(-c2cnccc2Cl)cc1O [MLEB-19133] | 4 (≈ 11.2 µM) | – | 2 (≈ 5.59 µM) | – | –
CC(C)=CCC/C(C)=C/Cc1c(O)cc(-c2cccc([N+](=O)[O-])c2)cc1O [MLEB-19134] | 1 (≈ 2.72 µM) | – | 1 (≈ 2.72 µM) | – | –
CC(C)=CCC/C(C)=C/Cc1c(O)cc(-c2ccnc(Cl)c2)cc1O [MLEB-19135] | 4 (≈ 11.2 µM) | – | 1 (≈ 2.79 µM) | – | –
CC(C)=CCC/C(C)=C/Cc1c(O)cc(-c2ccc(C#N)cc2)cc1O [MLEB-19136] | 4 (≈ 11.5 µM) | – | 2 (≈ 5.76 µM) | – | –
CC(C)=CCC/C(C)=C/Cc1c(O)cc(-c2cccnc2Cl)cc1O [MLEB-19137] | 1 (≈ 2.79 µM) | – | 1 (≈ 2.79 µM) | – | –
COc1ccc(-c2cc(O)c(C/C=C(\C)CCC=C(C)C)c(O)c2)cn1 [MLEB-19138] | 16 (≈ 45.3 µM) | – | – | – | –
CC(C)=CCC/C(C)=C/Cc1c(O)cc(-c2cnc(Cl)nc2)cc1O [MLEB-19139] | 16 (≈ 44.6 µM) | – | 4 (≈ 11.1 µM) | – | –
CC(C)=CCC/C(C)=C/Cc1c(O)cc(-c2ccc(C=O)o2)cc1O [MLEB-19161] | 4 (≈ 11.8 µM) | – | 4 (≈ 11.8 µM) | – | –
CC(C)=CCC/C(C)=C/Cc1c(O)cc(-c2ccc(C#N)s2)cc1O [MLEB-19162] | 2 (≈ 5.66 µM) | – | 4 (≈ 11.3 µM) | – | –
COc1ccc(-c2cc(O)c(C/C=C(\C)CCC=C(C)C)c(O)c2)cc1 [MLEB-19163] | 4 (≈ 11.3 µM) | – | 2 (≈ 5.67 µM) | – | –
CC(C)=CCC/C(C)=C/Cc1c(O)cc(-c2ccc(C=O)c(F)c2)cc1O [MLEB-19164] | 2 (≈ 5.43 µM) | – | 4 (≈ 10.9 µM) | – | –
CC(C)=CCC/C(C)=C/Cc1c(O)cc(-c2ccc([N+](=O)[O-])cc2)cc1O [MLEB-19165] | 2 (≈ 5.44 µM) | – | 1 (≈ 2.72 µM) | – | –

— patent publication US12011422B2, “Synthetic antibacterial compounds and uses thereof” (priority 2021, dated 2024)
